This passage reports IC50 results from US12662491B2 (Redona Therapeutics, Inc., priority 2020, dated 2026).

Where two headings read alike, the source gives them in different places.

In this test the target is T1, Zcchc11 enzyme (Homo sapiens, UniProt Q5TAX3).
T1 construct: made in house; host or cells: HEK293 cells (Zcchc11); E. coli Rosetta II (LIN28A)
T1 sequence (Q5TAX3 212-1420): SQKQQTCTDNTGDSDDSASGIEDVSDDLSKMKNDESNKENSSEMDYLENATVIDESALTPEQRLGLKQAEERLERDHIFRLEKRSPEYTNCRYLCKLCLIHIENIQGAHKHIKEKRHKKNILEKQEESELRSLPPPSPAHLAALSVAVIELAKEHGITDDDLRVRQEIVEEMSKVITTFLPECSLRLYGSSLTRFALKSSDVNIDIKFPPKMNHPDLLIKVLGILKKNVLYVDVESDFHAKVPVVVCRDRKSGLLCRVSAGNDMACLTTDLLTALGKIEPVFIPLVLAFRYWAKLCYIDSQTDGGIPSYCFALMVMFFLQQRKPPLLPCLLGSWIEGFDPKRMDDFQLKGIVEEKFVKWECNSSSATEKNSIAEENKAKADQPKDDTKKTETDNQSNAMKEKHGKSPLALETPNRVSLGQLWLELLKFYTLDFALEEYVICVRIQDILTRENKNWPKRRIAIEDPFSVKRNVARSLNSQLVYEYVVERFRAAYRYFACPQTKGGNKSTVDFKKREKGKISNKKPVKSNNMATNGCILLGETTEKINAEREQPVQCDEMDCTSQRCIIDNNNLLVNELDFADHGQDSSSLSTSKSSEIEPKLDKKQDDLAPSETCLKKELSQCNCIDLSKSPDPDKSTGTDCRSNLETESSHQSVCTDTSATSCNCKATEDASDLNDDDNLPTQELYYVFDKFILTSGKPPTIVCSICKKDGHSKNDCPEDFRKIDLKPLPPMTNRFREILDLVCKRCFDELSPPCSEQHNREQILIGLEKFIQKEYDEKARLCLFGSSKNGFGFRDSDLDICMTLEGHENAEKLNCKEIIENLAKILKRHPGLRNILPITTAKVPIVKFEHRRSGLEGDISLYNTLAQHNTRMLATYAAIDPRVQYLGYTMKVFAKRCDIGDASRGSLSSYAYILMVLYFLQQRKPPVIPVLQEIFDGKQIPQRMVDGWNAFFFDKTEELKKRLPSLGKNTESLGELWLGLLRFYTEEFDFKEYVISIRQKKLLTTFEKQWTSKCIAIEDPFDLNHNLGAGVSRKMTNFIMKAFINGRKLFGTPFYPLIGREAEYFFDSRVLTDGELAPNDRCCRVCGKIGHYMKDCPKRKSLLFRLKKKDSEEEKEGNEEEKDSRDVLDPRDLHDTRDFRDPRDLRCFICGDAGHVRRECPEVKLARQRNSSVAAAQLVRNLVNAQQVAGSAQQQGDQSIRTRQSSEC
Description: TUTase assay (Zcchc11 assay, Lin28a-dependent polyuridylation of pre-let-7). It counts as biochemical. Conditions: read-out: Potency Lin28a-dep Z11 IC50. In a few lines: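 HEK293-expressed human Zcchc11 (residues 212-1420, 0.2 nM) with 10 nM LIN28A and 2 nM 5′-fluorescein pre-let-7, preincubated 30 min at room temperature, pH 7.3. Started with 5 uM UTP; poly(U) tails quenched by 3′-rhodamine A20 probe, read kinetically. IC50 from early-rate four-parameter fit; no-UTP wells define 0%.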

Where [1] appears, read: Lin28a-dependent Zcchc11 (Z11) TUTase assay.

One may read the IC50 as the concentration that inhibits the measured activity by half. On to `CN(C)C1CN(c2ccc(-n3cc(C(=O)O)c(=O)c4cc(Cl)c(N5CCC[C@@H]5COc5ncccc5Cl)cc43)cn2)C1` [Example 78, 6-chloro-7-[(2R)-2-{[(3-chloropyridin-2-yl)oxy]methyl}pyrrolidin-1-yl]-1-{6-[3-(dimethylamino)azetidin-1-yl]pyridin-3-yl}-4-oxo-1,4-dihydroquinoline-3-carboxylic acid], for which, for the setting “LIN28A 10 nM, Zcchc11 0.2 nM, 5′-fluorescein pre-let-7 miRNA 2 nM, UTP 5 uM, room temperature, 30 minutes pre-incubation”, the IC50 was at most 1 µM.
In the case of `COc1ccc(-n2cc(C(=O)O)c(=O)c3cc(Cl)c(N4CCC[C@@H]4COc4ncccc4Cl)cc32)cn1` [Example 353, (R)-6-chloro-7-(2-(((3-chloropyridin-2-yl)oxy)methyl)pyrrolidin-1-yl)-1-(6-methoxypyridin-3-yl)-4-oxo-1,4-dihydroquinoline-3-carboxylic acid], under setting [1], the IC50 was at most 1 µM.
As for `O=C(O)c1cn(-c2cnc(O)cn2)c2cc(N3CCC[C@@H]3COc3ccccn3)c(F)cc2c1=O` [Example 354, (R)-6-fluoro-1-(5-hydroxypyrazin-2-yl)-4-oxo-7-(2-((pyridin-2-yloxy)methyl)pyrrolidin-1-yl)-1,4-dihydroquinoline-3-carboxylic acid], the IC50 under setting [1] was 1 to 10 µM.
On the same count and under the same terms, the result for `CNCCNc1ccc(-n2cc(C(=O)O)c(=O)c3cc(Cl)c(N4CCC[C@@H]4COc4ncccc4Cl)cc32)cn1` [Example 355, (R)-6-chloro-7-(2-(((3-chloropyridin-2-yl)oxy)methyl)pyrrolidin-1-yl)-1-(6-((2-(methylamino)ethyl)amino)pyridin-3-yl)-4-oxo-1,4-dihydro-quinoline-3-carboxylic acid] reads at most 1 µM.
On the same count and under the same terms, for `Cc1cccnc1OC[C@H]1CCCN1c1cc2c(cc1F)c(=O)c(C(=O)O)cn2C1(C)CC1` [Example 356, (R)-6-fluoro-1-(1-methylcyclo-propyl)-7-(2-(((3-methylpyridin-2-yl)oxy)methyl)pyrrolidin-1-yl)-4-oxo-1,4-dihydroquinoline-3-carboxylic acid] the value was at most 1 µM; for `O=C(O)c1cn(C2CC2)c2c(F)c(N3CCC[C@@H]3COc3cccnc3)c(F)cc2c1=O` [Example 357, (R)-1-cyclopropyl-6,8-difluoro-4-oxo-7-(2-((pyridin-3-yloxy)methyl)pyrrolidin-1-yl)-1,4-dihydro-quinoline-3-carboxylic acid], 1 to 10 µM; for `CC(=O)NC1CCC(n2cc(C(=O)O)c(=O)c3cc(F)c(N4CCC[C@@H]4COc4ccccn4)cc32)CC1` (stereo partly drawn) [Example 358, 1-(4-acetamidocyclo-hexyl)-6-fluoro-4-oxo-7-[(2R)-2-[(pyridin-2-yloxy)methyl]pyrrolo-1-yl]-1,4-dihydroquinoline-3-carboxylic acid], 1 to 10 µM.
Regarding `COC1CC(n2cc(C(=O)O)c(=O)c3cc(F)c(N4CCC[C@@H]4COc4ccccn4)cc32)C1` (stereo partly drawn) [Example 359, (R)-6-fluoro-1-(3-methoxycyclo-butyl)-4-oxo-7-(2-((pyridin-2-yloxy)methyl)pyrrolidin-1-yl)-1,4-dihydro-quinoline-3-carboxylic acid], under setting [1], the IC50 is 1 to 10 µM.
Still for that read-out and setting: the result for `CS(=O)(=O)NC1CCC(n2cc(C(=O)O)c(=O)c3cc(F)c(N4CCC[C@@H]4COc4ccccn4)cc32)CC1` (stereo partly drawn) [Example 360, (R)-6-fluoro-1-(4-(methyl-sulfonamido)cyclo-hexyl)-4-oxo-7-(2-((pyridin-2-yloxy)methyl)pyrrolidin-1-yl)-1,4-dihydro-quinoline-3-carboxylic acid] reads 1 to 10 µM; that for `CC1(n2cc(C(=O)O)c(=O)c3cc(F)c(N4CCC[C@@H]4COc4ccccn4)cc32)CC1` [Example 361, (R)-6-fluoro-1-(1-methylcyclo-propyl)-4-oxo-7-(2-((pyridin-2-yloxy)methyl)pyrrolidin-1-yl)-1,4-dihydroquinoline-3-carboxylic acid], at most 1 µM; that for `Cc1cccnc1OC[C@H]1CCCN1c1cc2c(cc1F)c(=O)c(C(=O)O)cn2C1CC(O)C1` (stereo partly drawn) [Example 362, (R)-6-fluoro-1-(3-hydroxycyclo-butyl)-7-(2-(((3-methylpyridin-2-yl)oxy)methyl)pyrrolidin-1-yl)-4-oxo-1,4-dihydroquinoline-3-carboxylic acid], at most 1 µM.
Still for that read-out and setting: the result for `CC1(n2cc(C(=O)O)c(=O)c3cc(F)c(N4CCC[C@@H]4COc4ccccn4)cc32)CCC1` [Example 363, (R)-6-fluoro-1-(1-methylcyclo-butyl)-4-oxo-7-(2-((pyridin-2-yloxy)methyl)pyrrolidin-1-yl)-1,4-dihydro-quinoline-3-carboxylic acid] reads 1 to 10 µM; that for `O=C(O)c1cn(-c2cnc(O)cn2)c2cc(N3CCC[C@@H]3COc3ncccc3Cl)c(Cl)cc2c1=O` [Example 364, 6-Chloro-7-[(2R)-2-{[(3-chloropyridin-2-yl)oxy]methyl}pyrrolidin-1-yl]-1-(5-hydroxy-pyrazin-2-yl)-4-oxo-1,4-dihydroquinoline-3-carboxylic acid], at most 1 µM.
Still for that read-out and setting: for `Cc1cccnc1OC[C@H]1CCCN1c1cc2c(cc1Br)c(=O)c(C(=O)O)cn2C1(C)CC1` [Example 365, 6-Bromo-1-(1-methylcyclo-propyl)-7-[(2R)-2-{[(3-methyl-pyridin-2-yl)oxy]methyl}pyrrolidin-1-yl]-4-oxo-1,4-dihydroquinoline-3-carboxylic acid] the value was 1 to 10 µM.
In the case of `Cc1cccnc1OC[C@H]1CCCN1c1cc2c(cc1Cl)c(=O)c(C(=O)O)cn2C1CNC1` [Example 366, 1-(Azetidin-3-yl)-6-chloro-7-[(2R)-2-{[(3-methyl-pyridin-2-yl)oxy]methyl}pyrrolidin-1-yl]-4-oxo-1,4-dihydroquinoline-3-carboxylic acid], the IC50 under setting [1] fell in the range of 1 to 10 µM.
The same measure, in the same setting: the result for `O=C(O)c1cn(C2CCNC2)c2cc(N3CCC[C@@H]3COc3ncccc3Cl)c(Cl)cc2c1=O` (stereo partly drawn) [Example 367, 6-chloro-7-[(2R)-2-{[(3-chloro-pyridin-2-yl)oxy)methyl}pyrrolidin-1-yl]-4-oxo-1-(pyrrolidin-3-yl)-1,4-dihydroquinoline-3-carboxylic acid] reads 1 to 10 µM.
Still for that read-out and setting: the result for `O=C(O)c1cn(C2CCNCC2)c2cc(N3CCC[C@@H]3COc3ncccc3Cl)c(Cl)cc2c1=O` [Example 368, 6-chloro-7-[(2R)-2-{[(3-chloropyridin-2-yl)oxy]methyl}pyrrolidin-1-yl]-4-oxo-1-(piperidin-4-yl)-1,4-dihydroquinoline-3-carboxylic acid] reads 1 to 10 µM; that for `O=C(O)c1cn(C2CC3(CNC3)C2)c2cc(N3CCC[C@@H]3COc3ncccc3Cl)c(Cl)cc2c1=O` [Example 369, 1-{2-Azaspiro[3.3]heptan-6-yl}-6-chloro-7-[(2R)-2-{[(3-chloropyridin-2-yl)oxy]methyl}pyrrolidin-1-yl]-4-oxo-1,4-dihydroquinoline-3-carboxylic acid], 1 to 10 µM.
On to `CC(=O)Nc1ccc(-n2cc(C(=O)O)c(=O)c3cc(F)c(N4CCC[C@@H]4COc4ccccn4)cc32)cc1` [Example 370, (R)-1-(4-acetamidophenyl)-6-fluoro-4-oxo-7-(2-((pyridin-2-yloxy)methyl)pyrrolidin-1-yl)-1,4-dihydro-quinoline-3-carboxylic acid], for which, under setting [1], the IC50 was at most 1 µM.
Same read-out and setting: the result for `CS(=O)(=O)Nc1ccc(-n2cc(C(=O)O)c(=O)c3cc(F)c(N4CCC[C@@H]4COc4ccccn4)cc32)cc1` [Example 371, (R)-6-fluoro-1-(4-(methyl-sulfonamido)phenyl)-4-oxo-7-(2-((pyridin-2-yloxy)methyl)pyrrolidin-1-yl)-1,4-dihydro-quinoline-3-carboxylic acid] reads at most 1 µM; that for `O=C(O)c1cn(-c2ccc(CO)cc2)c2cc(N3CCC[C@@H]3COc3ccccn3)c(F)cc2c1=O` [Example 372, (R)-6-fluoro-1-(4-(hydroxymethyl)phenyl)-4-oxo-7-(2-((pyridin-2-yloxy)methyl)pyrrolidin-1-yl)-1,4-dihydroquinoline-3-carboxylic acid], at most 1 µM.
